Laboratory results as given in patent US20020028851A1, “Guanylhydrazones and their use to treat inflammatory conditions” (priority 1994, published 2002).

Experiment: LD50
Assay type: in vivo

Compound: CC(=NNC(=N)N)c1cc(NC(=O)CCCCCCCCC(=O)Nc2cc(C(C)=NNC(=N)N)cc(C(C)=NNC(=N)N)c2)cc(C(C)=NNC(=N)N)c1.Cl.Cl.Cl.Cl [Compound 14, N,N′-bis(3,5-diacetyl-phenyl)decanediamide tetrakis(amidinohydrazone) tetrahydrochloride]
- LD50 (given intraperitoneally): 50 mg/kg
- LD50 (given orally): exceeds 1 g/kg
